From PMC4836387 (ACS Chemical Biology, 2016)

Columns and labels:
[1] = test system: HIV-1 vector carrying IN mutant E92Q; experiment: single-round HIV-1 infectivity assay, E92Q IN; assay type: cell-based; conditions: for EC50: Human immunodeficiency virus 1, read-out: EC50 E92Q; for Fold-change (FC) in EC50 relative to WT, E92Q: in parentheses
[2] = test system: HIV-1 vector carrying IN mutant T66I; experiment: single-round HIV-1 infectivity assay, T66I IN; assay type: cell-based; conditions: for EC50: Human immunodeficiency virus 1, read-out: EC50 T66I; for Fold-change (FC) in EC50 relative to WT, T66I: in parentheses
[3] = test system: HIV-1 vector carrying IN mutant G140S/Q148H; experiment: single-round HIV-1 infectivity assay, G140S/Q148H IN; assay type: cell-based; conditions: for Fold-change (FC) in EC50 relative to WT, G140S/Q148H: in parentheses
HIV-1 IN = HIV-1 IN (Human immunodeficiency virus type 1 group M subtype B, UniProt P12497); experiment: in vitro IN assay, strand transfer; assay type: biochemical; conditions: in vitro ST inhibitory IC50, text values
[4] = test system: HIV-1 vector carrying IN mutant G118R; experiment: single-round HIV-1 infectivity assay, G118R IN; assay type: cell-based; conditions: for EC50: Human immunodeficiency virus 1, read-out: EC50 G118R; for Fold-change (FC) in EC50 relative to WT, G118R: in parentheses
[5] = test system: HIV-1 vector carrying IN mutant Y143R; experiment: single-round HIV-1 infectivity assay, Y143R IN; assay type: cell-based; conditions: for EC50: Human immunodeficiency virus 1, read-out: EC50 Y143R; for Fold-change (FC) in EC50 relative to WT, Y143R: in parentheses
[6] = test system: HIV-1 vector carrying IN mutant H51Y; experiment: single-round HIV-1 infectivity assay, H51Y IN; assay type: cell-based; conditions: for EC50: Human immunodeficiency virus 1, read-out: EC50 H51Y; for Fold-change (FC) in EC50 relative to WT, H51Y: in parentheses
[7] = test system: HIV-1 vector carrying IN mutant R263K; experiment: single-round HIV-1 infectivity assay, R263K IN; assay type: cell-based; conditions: for EC50: Human immunodeficiency virus 1, read-out: EC50 R263K; for Fold-change (FC) in EC50 relative to WT, R263K: in parentheses
[8] = test system: HIV-1 vector carrying IN mutant N155H; experiment: single-round HIV-1 infectivity assay, N155H IN; assay type: cell-based; conditions: for EC50: Human immunodeficiency virus 1, read-out: EC50 N155H; for Fold-change (FC) in EC50 relative to WT, N155H: in parentheses
in vitro = conditions: human
[9] = test system: HIV-1 vector carrying IN mutant H51Y/R263K; experiment: single-round HIV-1 infectivity assay, H51Y/R263K IN; assay type: cell-based; conditions: for EC50: Human immunodeficiency virus 1, read-out: EC50 H51Y/R263K; for Fold-change (FC) in EC50 relative to WT, H51Y/R263K: in parentheses
[10] = test system: lentiviral vector carrying WT IN; experiment: single-round HIV-1 infectivity assay, WT IN; assay type: cell-based; conditions: Human immunodeficiency virus 1, read-out: EC50 (WT IN)

With `Nc1c(C(=O)NCc2ccc(F)cc2F)c(=O)n(O)c2ncc(CCCO)cc12` [4b] the EC50 [1] was 4.8 ± 2 nM, the “Fold-change (FC) in EC50 relative to WT, E92Q” value [1] was 1.5 and the EC50 [2] was 1.1 ± 0.1 nM. For the same compound, the “Fold-change (FC) in EC50 relative to WT, T66I” value [2] was 0.35, the “Fold-change (FC) in EC50 relative to WT, G140S/Q148H” value [3] was 4.3 and the IC50 (HIV-1 IN) was 11 nM. For the same compound, the EC50 [4] was 10 ± 1.6 nM, the “Fold-change (FC) in EC50 relative to WT, G118R” value [4] was 3.2 and the EC50 [5] was 2.8 ± 0.9 nM. The “Fold-change (FC) in EC50 relative to WT, Y143R” value [5] was 0.90, the EC50 [6] was 2.6 ± 0.5 nM and the “Fold-change (FC) in EC50 relative to WT, H51Y” value [6] was 0.84. The EC50 [7] was 2.5 ± 0.8 nM, the “Fold-change (FC) in EC50 relative to WT, R263K” value [7] was 0.81 and the EC50 [8] was 8.5 ± 3.1 nM. The “Fold-change (FC) in EC50 relative to WT, N155H” value [8] was 2.7, the CC50 (in vitro) was greater than 250000 nM and the EC50 [9] was 15 ± 2 nM. The “Fold-change (FC) in EC50 relative to WT, H51Y/R263K” value [9] was 4.8 and the EC50 [10] was 3.1 ± 2 nM.
With `Nc1c(C(=O)NCc2ccc(F)cc2F)c(=O)n(O)c2ncc(CCCCCO)cc12` [4c] the EC50 [1] was 3.8 ± 2.3 nM, the EC50 [2] was 0.93 ± 0.24 nM and the “Fold-change (FC) in EC50 relative to WT, T66I” value [2] was 0.72. For the same compound, the “Fold-change (FC) in EC50 relative to WT, G140S/Q148H” value [3] was 5.3, the EC50 ([3]; read-out: EC50 G140S/Q148H, viral vector carrying IN mutations G140S/Q148H) was 6.9 ± 2.3 nM and the EC50 [4] was 5.3 ± 1.6 nM. The “Fold-change (FC) in EC50 relative to WT, G118R” value [4] was 4.1, the EC50 [5] was 3 ± 0.5 nM and the “Fold-change (FC) in EC50 relative to WT, Y143R” value [5] was 2.3. For the same compound, the EC50 [6] was 3.8 ± 0.6 nM, the “Fold-change (FC) in EC50 relative to WT, H51Y” value [6] was 2.9 and the EC50 [7] was 2.6 ± 0.1 nM. For the same compound, the “Fold-change (FC) in EC50 relative to WT, R263K” value [7] was 2.0, the EC50 [8] was 2.4 ± 0.8 nM and the “Fold-change (FC) in EC50 relative to WT, N155H” value [8] was 1.8. The CC50 (in vitro) was greater than 250000 nM, the EC50 [9] was 2.6 ± 1.4 nM and the “Fold-change (FC) in EC50 relative to WT, H51Y/R263K” value [9] was 2.0. It also gave an EC50 [10] of 1.3 ± 0.2 nM.
In the case of `Nc1c(C(=O)NCc2ccc(F)cc2F)c(=O)n(O)c2ncc(CCCCCCO)cc12` [4d], the EC50 [1] is reported as 0.74 ± 0.13 nM, the “Fold-change (FC) in EC50 relative to WT, E92Q” value [1] is reported as 0.32 and the EC50 [2] is reported as 0.5 ± 0.35 nM. For the same compound, the “Fold-change (FC) in EC50 relative to WT, T66I” value [2] was 0.22, the “Fold-change (FC) in EC50 relative to WT, G140S/Q148H” value [3] was 4.1 and the EC50 [4] was 6.4 ± 2.5 nM. For the same compound, the “Fold-change (FC) in EC50 relative to WT, G118R” value [4] was 2.8, the EC50 [5] was 2.1 ± 1.4 nM and the “Fold-change (FC) in EC50 relative to WT, Y143R” value [5] was 0.91. For the same compound, the EC50 [6] was 1.6 ± 0.1 nM, the “Fold-change (FC) in EC50 relative to WT, H51Y” value [6] was 0.70 and the EC50 [7] was 8.4 ± 2.3 nM. For the same compound, the “Fold-change (FC) in EC50 relative to WT, R263K” value [7] was 3.7, the EC50 [8] was 2.7 ± 1 nM and the “Fold-change (FC) in EC50 relative to WT, N155H” value [8] was 1.2. For the same compound, the CC50 (in vitro) was greater than 250000 nM, the EC50 [9] was 5.2 ± 1.6 nM and the “Fold-change (FC) in EC50 relative to WT, H51Y/R263K” value [9] was 2.3. It also gave an EC50 [10] of 2.3 ± 0.6 nM.
In the case of `Nc1c(C(=O)NCc2ccc(F)cc2F)c(=O)n(O)c2ncc(CCCCCCCCO)cc12` [4e], the EC50 [1] is reported as 2.6 ± 0.2 nM, the “Fold-change (FC) in EC50 relative to WT, E92Q” value [1] is reported as 0.70 and the EC50 [2] is reported as 1.7 ± 0.5 nM. The “Fold-change (FC) in EC50 relative to WT, T66I” value [2] was 0.46, the “Fold-change (FC) in EC50 relative to WT, G140S/Q148H” value [3] was 2.1 and the IC50 (HIV-1 IN) was 5 nM. For the same compound, the EC50 [4] was 11 ± 1 nM, the “Fold-change (FC) in EC50 relative to WT, G118R” value [4] was 3.0 and the EC50 [5] was 3.2 ± 0.8 nM. The “Fold-change (FC) in EC50 relative to WT, Y143R” value [5] was 0.86, the EC50 [6] was 4.8 ± 1.1 nM and the “Fold-change (FC) in EC50 relative to WT, H51Y” value [6] was 1.3. The EC50 [7] was 3.8 ± 1.1 nM, the “Fold-change (FC) in EC50 relative to WT, R263K” value [7] was 1.0 and the EC50 [8] was 6.5 ± 2.7 nM. The “Fold-change (FC) in EC50 relative to WT, N155H” value [8] was 1.8, the CC50 (in vitro) was greater than 250000 nM and the EC50 [9] was 22 ± 8 nM. For the same compound, the “Fold-change (FC) in EC50 relative to WT, H51Y/R263K” value [9] was 5.9 and the EC50 [10] was 3.7 ± 0.4 nM.
For `Nc1c(C(=O)NCc2ccc(F)cc2F)c(=O)n(O)c2ncc(CCS(=O)(=O)c3ccccc3)cc12` [4f], the EC50 [1] was 1.2 ± 0.6 nM, the “Fold-change (FC) in EC50 relative to WT, E92Q” value [1] was 0.6 and the EC50 [2] was 0.7 ± 0.1 nM. For the same compound, the “Fold-change (FC) in EC50 relative to WT, T66I” value [2] was 0.3, the “Fold-change (FC) in EC50 relative to WT, G140S/Q148H” value [3] was 3 and the EC50 [4] was 11.4 ± 3.5 nM. For the same compound, the “Fold-change (FC) in EC50 relative to WT, G118R” value [4] was 6, the EC50 [5] was 0.6 ± 0.1 nM and the “Fold-change (FC) in EC50 relative to WT, Y143R” value [5] was 0.3. The EC50 [6] was 0.8 ± 0.5 nM, the “Fold-change (FC) in EC50 relative to WT, H51Y” value [6] was 0.4 and the EC50 [7] was 5.3 ± 0.8 nM. For the same compound, the “Fold-change (FC) in EC50 relative to WT, R263K” value [7] was 2, the EC50 [8] was 2.1 ± 1.2 nM and the “Fold-change (FC) in EC50 relative to WT, N155H” value [8] was 1. For the same compound, the CC50 (in vitro) was greater than 250000 nM, the EC50 [9] was 5.3 ± 0.4 nM and the “Fold-change (FC) in EC50 relative to WT, H51Y/R263K” value [9] was 2. The EC50 [10] was 2 ± 0.1 nM.
`Cc1nnc(C(=O)NC(C)(C)c2nc(C(=O)NCc3ccc(F)cc3)c(O)c(=O)n2C)o1` [compound 1, raltegravir, reference compound] gave an EC50 [1] of 30 ± 10 nM, an EC50 [2] of 2.8 ± 0.4 nM and an EC50 [6] of 3.4 ± 0.2 nM. For the same compound, the EC50 [9] was 6 ± 2.3 nM.
In the case of `COc1cc2c(cc1Cc1cccc(Cl)c1F)c(=O)c(C(=O)O)cn2[C@H](CO)C(C)C` [compound 2, elvitegravir, reference compound], the EC50 [1] is reported as 154 ± 34 nM, the “Fold-change (FC) in EC50 relative to WT, E92Q” value [1] is reported as 24 and the EC50 [2] is reported as 66 ± 1 nM. For the same compound, the “Fold-change (FC) in EC50 relative to WT, T66I” value [2] was 10, the “Fold-change (FC) in EC50 relative to WT, G140S/Q148H” value [3] was 891 and the EC50 [4] was 21 ± 10 nM. The “Fold-change (FC) in EC50 relative to WT, G118R” value [4] was 3.3, the EC50 [5] was 7.9 ± 2.3 nM and the “Fold-change (FC) in EC50 relative to WT, Y143R” value [5] was 1.2. The EC50 [6] was 4.5 ± 2.1 nM, the “Fold-change (FC) in EC50 relative to WT, H51Y” value [6] was 0.7 and the EC50 [7] was 10 ± 6 nM. For the same compound, the “Fold-change (FC) in EC50 relative to WT, R263K” value [7] was 1.6, the EC50 [8] was 90 ± 18 nM and the “Fold-change (FC) in EC50 relative to WT, N155H” value [8] was 14. The CC50 (in vitro) was greater than 250000 nM, the EC50 [9] was 53 ± 18 nM and the “Fold-change (FC) in EC50 relative to WT, H51Y/R263K” value [9] was 8. For the same compound, the EC50 [10] was 6.4 ± 0.8 nM.
With `C[C@@H]1CCO[C@H]2Cn3cc(C(=O)NCc4ccc(F)cc4F)c(=O)c(O)c3C(=O)N12` [compound 3, dolutegravir, reference compound] the EC50 [1] was 2.3 ± 0.4 nM, the EC50 [2] was 0.9 ± 0.8 nM and the EC50 [6] was 3.2 ± 0.2 nM. It also gave an EC50 [9] of 16 ± 2 nM.
